{
  "source": "patent US11618738B2",
  "about": "“Compound and application thereof in treating inflammation or inflammation-related diseases” (SICHUAN CENTER FOR TRANSLATIONAL MEDICINE OF TRADITIONAL …, priority 2017, dated 2023)",
  "key": {"PGE2 induced by LPS": {"system": "PGE2 induced by LPS", "test": "Inhibition of LPS-induced PGE2 in RAW 264.7 cells (ELISA)", "type": "cell-based, mice", "experimental": "This example is taken from a previous publication by Song et al.^[1]. In brief, mice RAW 264.7 cells were treated with increasing doses of each test compound at 37° C. for 1 hour. Thereafter, the cells were attacked with 20 μL/well of LPS (equivalent to a final concentration of 100 ng/mL). The cells were further incubated overnight at 37° C. A commercial ELISA assay kit obtained from R&D Systems (Minneapolis, Minn.) was used to determine the level of PGE2 in the supernatant, and three parallel experiments were performed. The optical density of each well was measured using a BioTek Epoch microplate reader (Winooski, Vt.) set to 450 nm. The NO study was performed in a similar manner, but Greiss reagent was used to monitor the level of NO, and the results were read at 550 nm."}, "[1]": {"system": "10% egg white-induced foot swelling in rats", "test": "10% egg white-induced foot swelling in rats", "type": "in vivo", "details": "for Foot swelling: mean ± SD", "description": "Injecting 10% egg white into rat paws can cause early acute inflammation such as redness, heat, swelling, and pain in rat paws. In this experiment, the anti-inflammatory effects of UTLOH series compounds were observed by the degree of swelling of the paws of rats after inflammation.\nSPF grade SD rats, half female and half male (100-120 g/mouse) were randomly grouped according to body weight. Each group was given the corresponding drugs by gavage, once a day, for 3 consecutive days, with a gavage volume of 1 ml/100 g. Before the experiment, the ankle joint of the right hind foot of each group of rats was marked, and the foot volume of each group of rats was measured twice with a rat foot volume meter, and the average of the two times was taken as the […]. 30 minutes after the last administration, the rats in each group were given a subcutaneous needle in the right hind paw, and injected with 10% fresh egg white solution 0.1 ml/mouse to cause inflammation, establishing a rat model of paw swelling. The post-inflamed foot volume in mice was measured twice at 1 h, 2 h, 3 h, and 4 h after inflammation, and the average of the two times was taken as the post-inflamed foot volume. The normal group was given 1 ml/100 g volume of 0.5% CMC-Na solution by gavage according to body weight."}, "[2]": {"system": "OA-induced hyperuricemia model mice", "test": "Serum UA in oxonic acid potassium salt-induced hyperuricemia model mice", "type": "in vivo", "details": "for UA: serum, oxonic acid potassium salt 300 mg/kg i.p., mean ± SD", "experimental": "Oxoxazine potassium salt can directly increase blood uric acid levels in animals. In this experiment, intraperitoneal injection of oxonic acid potassium salt was used to observe the uric acid-lowering effect of UTLOH series drugs.\n(§1) SPF grade KM mice, half female and half male (18-22 g/mouse). After the animals were adaptively fed for 3 days, they were randomly grouped by body weight. It was administered once a day for 7 consecutive days by gavage. On the 7th day, 1 hour before the gavage administration, the mice were intraperitoneally injected with a dose of 300 mg/kg of oxonic acid potassium salt. After the administration, the eyeballs were removed to take blood, and the serum was separated for testing. After decapitation, the liver was taken, weighed, cut into pieces, added with saline, homogenized, and centrifuged. Operated according to the kit instructions to determine the blood uric acid (UA) level in each group of mice; determine the xanthine oxidase (XOD) activity in the supernatant of mouse liver homogenate."}, "xanthine oxidase (XOD)": {"molecular_target": "T1, xanthine oxidase (XOD) (Mus musculus, UniProt Q00519)", "T1 construct": "from tissue; host or cells: liver of KM mice (homogenate supernatant)", "T1 sequence (Q00519 whole entry)": "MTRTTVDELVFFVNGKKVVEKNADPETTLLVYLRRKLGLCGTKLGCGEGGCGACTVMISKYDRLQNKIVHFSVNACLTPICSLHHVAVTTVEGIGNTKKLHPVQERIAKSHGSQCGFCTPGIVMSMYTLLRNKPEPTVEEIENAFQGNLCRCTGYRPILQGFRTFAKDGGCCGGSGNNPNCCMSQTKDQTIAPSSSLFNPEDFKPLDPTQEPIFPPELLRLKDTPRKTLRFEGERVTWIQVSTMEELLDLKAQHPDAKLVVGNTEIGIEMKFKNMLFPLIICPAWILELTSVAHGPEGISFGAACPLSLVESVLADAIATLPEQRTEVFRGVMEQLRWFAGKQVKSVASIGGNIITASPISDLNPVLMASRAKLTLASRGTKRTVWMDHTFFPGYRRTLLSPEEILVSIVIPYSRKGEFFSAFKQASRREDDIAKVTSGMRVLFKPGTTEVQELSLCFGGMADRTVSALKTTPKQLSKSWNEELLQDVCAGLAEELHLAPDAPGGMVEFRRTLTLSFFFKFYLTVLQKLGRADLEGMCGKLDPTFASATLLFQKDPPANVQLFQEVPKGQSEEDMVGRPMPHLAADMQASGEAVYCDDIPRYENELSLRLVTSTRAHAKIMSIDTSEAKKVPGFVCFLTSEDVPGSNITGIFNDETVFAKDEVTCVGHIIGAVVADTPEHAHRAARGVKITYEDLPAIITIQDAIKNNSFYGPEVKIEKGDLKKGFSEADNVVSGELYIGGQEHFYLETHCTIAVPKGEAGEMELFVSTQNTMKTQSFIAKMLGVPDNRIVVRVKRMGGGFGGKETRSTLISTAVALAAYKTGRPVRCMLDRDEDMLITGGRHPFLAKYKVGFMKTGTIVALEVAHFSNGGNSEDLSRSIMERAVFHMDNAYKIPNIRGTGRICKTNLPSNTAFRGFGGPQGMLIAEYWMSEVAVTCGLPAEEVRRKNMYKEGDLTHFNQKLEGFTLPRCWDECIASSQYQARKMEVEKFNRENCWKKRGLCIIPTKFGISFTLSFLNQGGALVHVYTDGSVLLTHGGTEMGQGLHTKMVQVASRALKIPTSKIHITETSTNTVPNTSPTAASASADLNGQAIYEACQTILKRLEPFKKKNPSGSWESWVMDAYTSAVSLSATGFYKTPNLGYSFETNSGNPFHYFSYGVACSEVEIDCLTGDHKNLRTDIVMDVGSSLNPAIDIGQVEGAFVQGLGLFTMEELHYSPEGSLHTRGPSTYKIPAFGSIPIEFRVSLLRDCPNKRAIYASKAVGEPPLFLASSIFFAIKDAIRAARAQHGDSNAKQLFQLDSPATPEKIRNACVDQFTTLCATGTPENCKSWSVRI", "test": "Liver XOD activity in OA-induced hyperuricemia model mice", "type": "in vivo", "details": "for XOD(U/gprot): liver homogenate, mean ± SD", "experimental": "as §1"}, "[3]": {"details": "10 mg/kg gavage once a day for 3 days, 1 h after inflammation"}, "[4]": {"details": "10 mg/kg gavage once a day for 3 days, 2 h after inflammation"}, "[5]": {"details": "10 mg/kg gavage once a day for 3 days, 3 h after inflammation"}, "[6]": {"details": "10 mg/kg gavage once a day for 3 days, 4 h after inflammation"}, "[7]": {"details": "20 mg/kg gavage once a day for 3 days, 1 h after inflammation"}, "[8]": {"details": "20 mg/kg gavage once a day for 3 days, 2 h after inflammation"}, "[9]": {"details": "20 mg/kg gavage once a day for 3 days, 3 h after inflammation"}, "[10]": {"details": "20 mg/kg gavage once a day for 3 days, 4 h after inflammation"}, "[11]": {"details": "40 mg/kg gavage once a day for 3 days, 1 h after inflammation"}, "[12]": {"details": "40 mg/kg gavage once a day for 3 days, 2 h after inflammation"}, "[13]": {"details": "40 mg/kg gavage once a day for 3 days, 3 h after inflammation"}, "[14]": {"details": "40 mg/kg gavage once a day for 3 days, 4 h after inflammation"}, "[15]": {"details": "6.25 mg/kg gavage once a day for 7 days"}, "[16]": {"details": "12.5 mg/kg gavage once a day for 7 days"}},
  "data": [
    {"smiles": "Cc1cc(C(=O)Nc2ccccc2O)no1", "note": "[UTLOH-4a]", "values": [
      {"measurement": "PGE2 inhibition (%)", "setting": "PGE2 induced by LPS; RAW 264.7 cells, LPS 100 ng/mL, overnight, test concentration not given", "result": 98.5, "unit": "%"},
      {"measurement": "inhibition on PGE2 compared to leflunomide (in words)", "setting": "PGE2 induced by LPS; compared to leflunomide", "result": "stronger"},
      {"measurement": "Foot swelling", "setting": "[1]; [3]", "result": "0.50 ± 0.08", "unit": "mL"},
      {"measurement": "Foot swelling", "setting": "[1]; [4]", "result": "0.79 ± 0.07", "unit": "mL"},
      {"measurement": "Foot swelling", "setting": "[1]; [5]", "result": "0.63 ± 0.13", "unit": "mL"},
      {"measurement": "Foot swelling", "setting": "[1]; [6]", "result": "0.47 ± 0.13", "unit": "mL"},
      {"measurement": "Foot swelling", "setting": "[1]; [7]", "result": "0.55 ± 0.11", "unit": "mL"},
      {"measurement": "Foot swelling", "setting": "[1]; [8]", "result": "0.79 ± 0.14", "unit": "mL"},
      {"measurement": "Foot swelling", "setting": "[1]; [9]", "result": "0.64 ± 0.15", "unit": "mL"},
      {"measurement": "Foot swelling", "setting": "[1]; [10]", "result": "0.48 ± 0.12", "unit": "mL"},
      {"measurement": "Foot swelling", "setting": "[1]; [11]", "result": "0.65 ± 0.18", "unit": "mL"},
      {"measurement": "Foot swelling", "setting": "[1]; [12]", "result": "0.77 ± 0.11", "unit": "mL"},
      {"measurement": "Foot swelling", "setting": "[1]; [13]", "result": "0.57 ± 0.15", "unit": "mL"},
      {"measurement": "Foot swelling", "setting": "[1]; [14]", "result": "0.48 ± 0.12", "unit": "mL"},
      {"measurement": "foot swelling compared with the normal group (in words)", "setting": "[1]; low, medium- and high-dose group, 1 h after inflammation", "result": "significantly reduce"}
    ]},
    {"smiles": "Cc1cc(C(=O)Nc2ccc(O)cc2O)no1", "note": "[UTLOH-4e]", "values": [
      {"measurement": "PGE2 inhibition rate (in words)", "setting": "PGE2 induced by LPS; same experimental method as Table 1", "result": "very good"},
      {"measurement": "Foot swelling", "setting": "[1]; [3]", "result": "0.67 ± 0.15", "unit": "mL"},
      {"measurement": "Foot swelling", "setting": "[1]; [4]", "result": "0.66 ± 0.15", "unit": "mL"},
      {"measurement": "Foot swelling", "setting": "[1]; [5]", "result": "0.60 ± 0.16", "unit": "mL"},
      {"measurement": "Foot swelling", "setting": "[1]; [6]", "result": "0.44 ± 0.07", "unit": "mL"},
      {"measurement": "Foot swelling", "setting": "[1]; [7]", "result": "0.69 ± 0.08", "unit": "mL"},
      {"measurement": "Foot swelling", "setting": "[1]; [8]", "result": "0.55 ± 0.13", "unit": "mL"},
      {"measurement": "Foot swelling", "setting": "[1]; [9]", "result": "0.51 ± 0.09", "unit": "mL"},
      {"measurement": "Foot swelling", "setting": "[1]; [10]", "result": "0.38 ± 0.12", "unit": "mL"},
      {"measurement": "Foot swelling", "setting": "[1]; [11]", "result": "0.69 ± 0.13", "unit": "mL"},
      {"measurement": "Foot swelling", "setting": "[1]; [12]", "result": "0.57 ± 0.17", "unit": "mL"},
      {"measurement": "Foot swelling", "setting": "[1]; [13]", "result": "0.49 ± 0.15", "unit": "mL"},
      {"measurement": "Foot swelling", "setting": "[1]; [14]", "result": "0.45 ± 0.16", "unit": "mL"},
      {"measurement": "foot swelling degree compared with the normal group (in words)", "setting": "[1]; low-dose group, 1 h after inflammation", "result": "significantly reduced"},
      {"measurement": "foot swelling degree compared with the normal group (in words)", "setting": "[1]; medium-dose group and high-dose group, 1 h, 2 h and 3 h after inflammation", "result": "significantly reduced"},
      {"measurement": "UA", "setting": "[2]; [15]", "result": "50.07 ± 9.86", "unit": "µmol/L"},
      {"measurement": "UA", "setting": "[2]; [16]", "result": "47.15 ± 13.48", "unit": "µmol/L"},
      {"measurement": "level of uric acid in the serum of model mice (in words)", "setting": "[2]; versus model group", "result": "significantly reduce"},
      {"measurement": "XOD(U/gprot)", "setting": "xanthine oxidase (XOD); [15]", "result": "21.55 ± 2.00", "unit": "U/gprot"},
      {"measurement": "XOD(U/gprot)", "setting": "xanthine oxidase (XOD); [16]", "result": "22.54 ± 3.98", "unit": "U/gprot"},
      {"measurement": "liver XOD activity of model mice (in words)", "setting": "xanthine oxidase (XOD); versus model group", "result": "significantly reduce"}
    ]}
  ]
}
